Source: patent publication US9862713B2, “Substituted bicyclic heteroaryl compounds as RXR agonists” (CONNEXIOS LIFE SCIENCES PVT. LTD., priority 2014, dated 2018)

How the values were obtained:
[1] = system: HL-60 promyelocytic leukemia cell line; assay: HL-60 differentiation (NBT reduction); format: cell-based; conditions: 72 h culture, NBT reduction at 540 nm
Experimental: Progression of promyelocytic leukemia can be abrogated by their differentiation. […] In order to estimate the differentiating ability of compound-40, HL-60 promyelocytic leukemia cell line was used as an in vitro model of the disease. HL-60 cells were cultured for 72 h as either control or under treatment as mentioned. After 72 h of culture, cells were exposed to nitro blue tetrazolium (NBT) solution containing phorbol myristate acetate (PMA) for 1 h at 37° C. Differentiated cells have increased oxidative burst potential which reduces NBT. Levels of reduced NBT were measured at 540 nm absorption.

hRXR α, β, or γ = assay: Transactivation assay (RARE-Luc dual luciferase reporter in HEK-293 cells), activity relative to LG268; format: cell-based, human; conditions: 24 h, luciferase activity expressed relative to LG268; for Activity at 1 µM: compound at 1 µM; for Activity at 300 nM: compound at 300 nM
How it was run: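 HEK-293 cells co-transfected with hRXR α, β or γ expression vector, RARE-firefly luciferase and renilla luciferase; 24 h later treated with agonist (100 nM, 300 nM, 1 uM) for 24 h. Firefly signal normalized to renilla; activity expressed relative to the RXR agonist LG268.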

| Structure (SMILES) | Activity at 1 µM (hRXR α, β, or γ) | Activity at 300 nM (hRXR α, β, or γ) | other results |
| --- | --- | --- | --- |
| CC1=C(/C=C/C(C)=C/C=C/C(C)=C/C(=O)O)C(C)(C)CCC1 [ATRA, all transretinoic acid, reference compound] | – | – | HL-60 cells differentiation [1]: induced differentiation |
| CCn1c(-c2ccc(C(=O)O)cc2)ccc1-c1sc2c(c1C)C(C)(C)CCC2(C)C [Compound 32, 4-[1-Ethyl-5-(3,4,4,7,7-pentamethyl-4,5,6,7-tetrahydro-1-benzothiophen-2-yl)-1H-pyrrol-2-yl]benzoic acid] | * (<0.7) | – | – |
| C=C(c1ccc(C(=O)O)nc1)c1nc2c(s1)C(C)(C)CCC2(C)C [Compound 94, 5-[1-(4,4,7,7-tetramethyl-4,5,6,7-tetrahydro-1,3-benzothiazol-2-yl)ethenyl]pyridine-2-carboxylic acid] | – | ** (>0.3 and <0.4) | – |
| CC1(C)CCC(C)(C)c2sc(N(c3ccccc3)c3ccc(C(=O)O)cc3)nc21 [Compound 100, 4-[phenyl(4,4,7,7-tetramethyl-4,5,6,7-tetrahydro-1,3-benzothiazol-2-yl)amino]benzoic acid] | – | ***** (>0.6) | – |
| Cc1c(N(C)c2ccc(C(=O)O)cn2)sc2c1C(C)(C)CCC2 [Compound 26, 6-[Methyl(3,4,4-trimethyl-4,5,6,7-tetrahydro-1-benzothiophen-2-yl)amino]pyridine-3-carboxylic acid] | * (<0.7) | – | – |
